Experimental data reported in ChEMBL document CHEMBL3784933, “Synthesis and antitumor evaluation of trimethoxyanilides based on 4(3H)-quinazolinone scaffolds” (2016).

How the values were obtained:
Assay type in all cases: functional
CCRF-CEM = assay: Cytotoxicity against human CCRF-CEM cells assessed as growth inhibition at 10 uM after 48 hrs by SRB assay; details: read-out: GI
K562 = assay: Cytotoxicity against human K562 cells assessed as growth inhibition at 10 uM after 48 hrs by SRB assay; details: K562, 48 h, read-out: GI
[1] = Cytotoxicity against human MOLT4 cells assessed as growth inhibition at 10 uM after 48 hrs by SRB assay; details: MOLT-4, 48 h, read-out: GI
[2] = Cytotoxicity against human RPMI8226 cells assessed as growth inhibition at 10 uM after 48 hrs by SRB assay; details: RPMI-8226, 48 h, read-out: GI
A549 = assay: Cytotoxicity against human A549 cells assessed as growth inhibition at 10 uM after 48 hrs by SRB assay; details: A549, 48 h, read-out: GI
[3] = Cytotoxicity against human HOP92 cells assessed as growth inhibition at 10 uM after 48 hrs by SRB assay; details: HOP-92, 48 h, read-out: GI
NCI-H322M = assay: Cytotoxicity against human NCI-H322M cells assessed as growth inhibition at 10 uM after 48 hrs by SRB assay; details: read-out: GI
NCI-H522 = assay: Cytotoxicity against human NCI-H522 cells assessed as growth inhibition at 10 uM after 48 hrs by SRB assay; details: NCI-H522, 48 h, read-out: GI
[4] = Cytotoxicity against human HCT116 cells assessed as growth inhibition at 10 uM after 48 hrs by SRB assay; details: HCT-116, 48 h, read-out: GI
[5] = Cytotoxicity against human SW620 cells assessed as growth inhibition at 10 uM after 48 hrs by SRB assay; details: SW-620, 48 h, read-out: GI
[6] = Cytotoxicity against human SF268 cells assessed as growth inhibition at 10 uM after 48 hrs by SRB assay; details: SF-268, 48 h, read-out: GI
[7] = Cytotoxicity against human SF295 cells assessed as growth inhibition at 10 uM after 48 hrs by SRB assay; details: SF-295, 48 h, read-out: GI
[8] = Cytotoxicity against human SF539 cells assessed as growth inhibition at 10 uM after 48 hrs by SRB assay; details: SF-539, 48 h, read-out: GI
[9] = Cytotoxicity against human SNB19 cells assessed as growth inhibition at 10 uM after 48 hrs by SRB assay; details: SNB-19, 48 h, read-out: GI
[10] = Cytotoxicity against human SNB75 cells assessed as growth inhibition at 10 uM after 48 hrs by SRB assay; details: SNB-75, 48 h, read-out: GI
U-251 = assay: Cytotoxicity against human U251 cells assessed as growth inhibition at 10 uM after 48 hrs by SRB assay; details: U-251, 48 h, read-out: GI
[11] = Cytotoxicity against human LOXIMVI cells assessed as growth inhibition at 10 uM after 48 hrs by SRB assay; details: LOX IMVI, read-out: GI
Malme-3M = assay: Cytotoxicity against human MALME-3M cells assessed as growth inhibition at 10 uM after 48 hrs by SRB assay; details: read-out: GI
[12] = Cytotoxicity against human UACC62 cells assessed as growth inhibition at 10 uM after 48 hrs by SRB assay; details: UACC-62, 48 h, read-out: GI
[13] = Cytotoxicity against human OVCAR4 cells assessed as growth inhibition at 10 uM after 48 hrs by SRB assay; details: OVCAR-4, 48 h, read-out: GI
[14] = Cytotoxicity against human OVCAR5 cells assessed as growth inhibition at 10 uM after 48 hrs by SRB assay; details: OVCAR-5, 48 h, read-out: GI
[15] = Cytotoxicity against human OVCAR8 cells assessed as growth inhibition at 10 uM after 48 hrs by SRB assay; details: OVCAR-8, 48 h, read-out: GI
[16] = Cytotoxicity against human NCI-ADR-RES cells assessed as growth inhibition at 10 uM after 48 hrs by SRB assay; details: read-out: GI
786-0 = assay: Cytotoxicity against human 786-0 cells assessed as growth inhibition at 10 uM after 48 hrs by SRB assay; details: 786-0, 48 h, read-out: GI
A498 = assay: Cytotoxicity against human A498 cells assessed as growth inhibition at 10 uM after 48 hrs by SRB assay; details: A498, 48 h, read-out: GI
ACHN = assay: Cytotoxicity against human ACHN cells assessed as growth inhibition at 10 uM after 48 hrs by SRB assay; details: read-out: GI
[17] = Cytotoxicity against human Caki1 cells assessed as growth inhibition at 10 uM after 48 hrs by SRB assay; details: CAKI-1, 48 h, read-out: GI
[18] = Cytotoxicity against human RXF393 cells assessed as growth inhibition at 10 uM after 48 hrs by SRB assay; details: RXF 393, 48 h, read-out: GI
SN12C = assay: Cytotoxicity against human SN12C cells assessed as growth inhibition at 10 uM after 48 hrs by SRB assay; details: read-out: GI
[19] = Cytotoxicity against human UO31 cells assessed as growth inhibition at 10 uM after 48 hrs by SRB assay; details: UO-31, 48 h, read-out: GI
[20] = Cytotoxicity against human PC3 cells assessed as growth inhibition at 10 uM after 48 hrs by SRB assay; details: PC-3, 48 h, read-out: GI
MDA-MB-231 = assay: Cytotoxicity against human MDA-MB-231 cells assessed as growth inhibition at 10 uM after 48 hrs by SRB assay; details: MDA-MB-231, 48 h, read-out: GI
[21] = Cytotoxicity against human Hs 578T cells assessed as growth inhibition at 10 uM after 48 hrs by SRB assay; details: read-out: GI
[22] = Cytotoxicity against human BT549 cells assessed as growth inhibition at 10 uM after 48 hrs by SRB assay; details: BT-549, 48 h, read-out: GI
T47D = assay: Cytotoxicity against human T47D cells assessed as growth inhibition at 10 uM after 48 hrs by SRB assay; details: read-out: GI

SMILES: COc1cc(NC(=O)CCSc2nc3ccc(C)cc3c(=O)n2-c2ccccc2)cc(OC)c1OC
- inhibition of growth at 10 µM (CCRF-CEM): 35%
- inhibition of growth at 10 µM (K562): 10%
- inhibition of growth at 10 µM [1]: 43%
- inhibition of growth at 10 µM [2]: 27%
- inhibition of growth at 10 µM (A549): 15%
- inhibition of growth at 10 µM [3]: 40%
- inhibition of growth at 10 µM (NCI-H322M): 19%
- inhibition of growth at 10 µM (NCI-H522): 80%
- inhibition of growth at 10 µM [4]: 16%
- inhibition of growth at 10 µM [5]: 13%
- inhibition of growth at 10 µM [6]: 34%
- inhibition of growth at 10 µM [7]: 13%
- inhibition of growth at 10 µM [8]: 17%
- inhibition of growth at 10 µM [9]: 17%
- inhibition of growth at 10 µM [10]: 50%
- inhibition of growth at 10 µM (U-251): 20%
- inhibition of growth at 10 µM [11]: 62%
- inhibition of growth at 10 µM (Malme-3M): 13%
- inhibition of growth at 10 µM [12]: 24%
- inhibition of growth at 10 µM [13]: 23%
- inhibition of growth at 10 µM [14]: 12%
- inhibition of growth at 10 µM [15]: 16%
- inhibition of growth at 10 µM [16]: 26%
- inhibition of growth at 10 µM (786-0): 21%
- inhibition of growth at 10 µM (A498): 45%
- inhibition of growth at 10 µM (ACHN): 24%
- inhibition of growth at 10 µM [17]: 29%
- inhibition of growth at 10 µM [18]: 29%
- inhibition of growth at 10 µM (SN12C): 17%
- inhibition of growth at 10 µM [19]: 47%
- inhibition of growth at 10 µM [20]: 36%
- inhibition of growth at 10 µM (MDA-MB-231): 53%
- inhibition of growth at 10 µM [21]: 14%
- inhibition of growth at 10 µM [22]: 12%
- inhibition of growth at 10 µM (T47D): 19%
